Assays:
cocklebur = assay: Test B pre/postemergence cocklebur; format: in vivo, Xanthium strumarium
Procedure, shortened: (§1)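 Herbicidal effect was estimated by eye on a ten-point control scale after plants spent twelve to sixteen days in a greenhouse following soil or foliar treatment. Foliar sprays targeted plants at one to four leaves; all doses were formulated in a non-phytotoxic solvent with surfactant.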

corn = assay: Test B pre/postemergence corn; format: in vivo, Zea mays
Procedure, shortened: as §1

crabgrass = assay: Test B pre/postemergence crabgrass; format: in vivo, Digitaria sanguinalis
Procedure, shortened: as §1

giant foxtail = assay: Test B pre/postemergence giant foxtail; format: in vivo, Setaria faberii
Procedure, shortened: as §1

morningglory = assay: Test B pre/postemergence morningglory; format: in vivo, Ipomoea hederacea
Procedure, shortened: as §1

pigweed = assay: Test B pre/postemergence pigweed; format: in vivo, Amaranthus retroflexus
Procedure, shortened: as §1

rape = assay: Test B pre/postemergence rape; format: in vivo, Brassica napus
Procedure, shortened: as §1

soybean = assay: Test B pre/postemergence soybean; format: in vivo, Glycine max
Procedure, shortened: as §1

sugar beet = assay: Test B pre/postemergence sugar beet; format: in vivo, Beta vulgaris
Procedure, shortened: as §1

velvetleaf = assay: Test B pre/postemergence velvetleaf; format: in vivo, Abutilon theophrasti
Procedure, shortened: as §1

wheat = assay: Test B pre/postemergence wheat; format: in vivo, Triticum aestivum
Procedure, shortened: as §1

wild oat = assay: Test B pre/postemergence wild oat; format: in vivo, Avena fatua
Procedure, shortened: as §1

purple nutsedge = assay: Test B pre/postemergence purple nutsedge; format: in vivo, Cyperus rotundus
Procedure, shortened: as §1

[1] = Postemergence, Rate 125 g/ha, scale of 0 to 10 where 0 is no effect and 10 is complete control
[2] = Preemergence, Rate 62 g/ha, scale 0 to 10 (0 no effect, 10 complete control)
[3] = Preemergence, Rate 125 g/ha, 0 is no effect, 10 is complete control
[4] = Preemergence, Rate 500 g/ha, scale 0 to 10 (0 no effect, 10 complete control)
[5] = Rate 62 g/ha, Postemergence, scale of 0 to 10 where 0 is no effect and 10 is complete control
[6] = Rate 250 g/ha, Postemergence, scale 0 to 10, 0 is no effect, 10 is complete control
[7] = Rate 500 g/ha, Postemergence, scale 0 to 10
[8] = Preemergence, Rate 250 g/ha, scale 0 to 10, 0 is no effect, 10 is complete control

`Cc1ccc(N(C(=O)n2oc(=O)n(C(C)C)c2=O)C(C)C)cc1` [Compound 132] was tested, and the “Cocklebur plant response rating” value (cocklebur; [1]) was 0, the “Cocklebur plant response rating” value (cocklebur; [2]) was 0 and the “Cocklebur plant response rating (0 to 10 scale)” value (cocklebur; [3]) was 0. The “Cocklebur plant response rating” value (cocklebur; [4]) was 0, the “Cocklebur plant response rating” value (cocklebur; [5]) was 0 and the “Plant response rating, Cocklebur” value (cocklebur; [6]) was 0. For the same compound, the “Cocklebur plant response rating” value (cocklebur; [7]) was 0, the “Corn plant response rating” value (corn; [1]) was 0 and the “Corn plant response rating” value (corn; [2]) was 0. For the same compound, the “Corn plant response rating (0 to 10 scale)” value (corn; [3]) was 0, the “Corn plant response rating” value (corn; [8]) was 7 and the “Corn plant response rating” value (corn; [4]) was 8. For the same compound, the “Corn plant response rating” value (corn; [5]) was 0, the “Plant response rating, Corn” value (corn; [6]) was 4 and the “Corn plant response rating” value (corn; [7]) was 6. For the same compound, the “Crabgrass plant response rating” value (crabgrass; [1]) was 7, the “Crabgrass plant response rating” value (crabgrass; [2]) was 7 and the “Crabgrass plant response rating (0 to 10 scale)” value (crabgrass; [3]) was 7. The “Crabgrass plant response rating” value (crabgrass; [8]) was 9, the “Crabgrass plant response rating” value (crabgrass; [4]) was 9 and the “Crabgrass plant response rating” value (crabgrass; [5]) was 5. The “Plant response rating, Crabgrass” value (crabgrass; [6]) was 8, the “Crabgrass plant response rating” value (crabgrass; [7]) was 9 and the “Giant foxtail plant response rating” value (giant foxtail; [1]) was 9. For the same compound, the “Giant foxtail plant response rating” value (giant foxtail; [2]) was 8, the “Giant foxtail plant response rating (0 to 10 scale)” value (giant foxtail; [3]) was 8 and the “Giant foxtail plant response rating” value (giant foxtail; [8]) was 9. For the same compound, the “Giant foxtail plant response rating” value (giant foxtail; [4]) was 10, the “Giant foxtail plant response rating” value (giant foxtail; [5]) was 8 and the “Plant response rating, Giant foxtail” value (giant foxtail; [6]) was 9. The “Giant foxtail plant response rating” value (giant foxtail; [7]) was 9, the “Morningglory plant response rating” value (morningglory; [1]) was 6 and the “Morningglory plant response rating” value (morningglory; [2]) was 0. The “Morningglory plant response rating (0 to 10 scale)” value (morningglory; [3]) was 0, the “Morningglory plant response rating” value (morningglory; [8]) was 0 and the “Morningglory plant response rating” value (morningglory; [4]) was 2. For the same compound, the “Morningglory plant response rating” value (morningglory; [5]) was 3, the “Plant response rating, Morningglory” value (morningglory; [6]) was 6 and the “Morningglory plant response rating” value (morningglory; [7]) was 7. For the same compound, the “Redroot pigweed plant response rating” value (pigweed; [1]) was 0, the “Redroot pigweed plant response rating” value (pigweed; [2]) was 2 and the “Redroot pigweed plant response rating (0 to 10 scale)” value (pigweed; [3]) was 6. The “Redroot pigweed plant response rating” value (pigweed; [8]) was 7, the “Redroot pigweed plant response rating” value (pigweed; [4]) was 7 and the “Redroot pigweed plant response rating” value (pigweed; [5]) was 0. For the same compound, the “Plant response rating, Redroot pigweed” value (pigweed; [6]) was 0, the “Redroot pigweed plant response rating” value (pigweed; [7]) was 2 and the “Rape plant response rating” value (rape; [1]) was 0. For the same compound, the “Rape plant response rating” value (rape; [2]) was 0, the “Rape plant response rating (0 to 10 scale)” value (rape; [3]) was 0 and the “Rape plant response rating” value (rape; [8]) was 0. For the same compound, the “Rape plant response rating” value (rape; [4]) was 8, the “Rape plant response rating” value (rape; [5]) was 0 and the “Plant response rating, Rape” value (rape; [6]) was 0. The “Rape plant response rating” value (rape; [7]) was 0, the “Soybean plant response rating” value (soybean; [1]) was 3 and the “Soybean plant response rating” value (soybean; [2]) was 0. For the same compound, the “Soybean plant response rating (0 to 10 scale)” value (soybean; [3]) was 0, the “Soybean plant response rating” value (soybean; [8]) was 2 and the “Soybean plant response rating” value (soybean; [4]) was 4. For the same compound, the “Soybean plant response rating” value (soybean; [5]) was 3, the “Plant response rating, Soybean” value (soybean; [6]) was 4 and the “Soybean plant response rating” value (soybean; [7]) was 6. The “Sugarbeets plant response rating” value (sugar beet; [1]) was 0, the “Sugarbeets plant response rating” value (sugar beet; [2]) was 2 and the “Sugarbeets plant response rating (0 to 10 scale)” value (sugar beet; [3]) was 5. The “Sugarbeets plant response rating” value (sugar beet; [8]) was 6, the “Sugarbeets plant response rating” value (sugar beet; [4]) was 8 and the “Sugarbeets plant response rating” value (sugar beet; [5]) was 0. The “Plant response rating, Sugarbeets” value (sugar beet; [6]) was 0, the “Sugarbeets plant response rating” value (sugar beet; [7]) was 2 and the “Velvetleaf plant response rating” value (velvetleaf; [1]) was 2. The “Velvetleaf plant response rating” value (velvetleaf; [2]) was 3, the “Velvetleaf plant response rating (0 to 10 scale)” value (velvetleaf; [3]) was 4 and the “Velvetleaf plant response rating” value (velvetleaf; [8]) was 6. The “Velvetleaf plant response rating” value (velvetleaf; [4]) was 10, the “Velvetleaf plant response rating” value (velvetleaf; [5]) was 2 and the “Plant response rating, Velvetleaf” value (velvetleaf; [6]) was 3. For the same compound, the “Velvetleaf plant response rating” value (velvetleaf; [7]) was 3, the “Wheat plant response rating” value (wheat; [1]) was 2 and the “Wheat plant response rating” value (wheat; [2]) was 0. The “Wheat plant response rating (0 to 10 scale)” value (wheat; [3]) was 0, the “Wheat plant response rating” value (wheat; [8]) was 2 and the “Wheat plant response rating” value (wheat; [4]) was 4. The “Wheat plant response rating” value (wheat; [5]) was 0, the “Plant response rating, Wheat” value (wheat; [6]) was 2 and the “Wheat plant response rating” value (wheat; [7]) was 6. The “Wild oats plant response rating” value (wild oat; [1]) was 2, the “Wild oats plant response rating” value (wild oat; [2]) was 3 and the “Wild oats plant response rating (0 to 10 scale)” value (wild oat; [3]) was 5. For the same compound, the “Wild oats plant response rating” value (wild oat; [8]) was 8, the “Wild oats plant response rating” value (wild oat; [4]) was 9 and the “Wild oats plant response rating” value (wild oat; [5]) was 0. The “Plant response rating, Wild oats” value (wild oat; [6]) was 2, the “Wild oats plant response rating” value (wild oat; [7]) was 3 and the “Nutsedge plant response rating” value (purple nutsedge; [1]) was 2. The “Nutsedge plant response rating” value (purple nutsedge; [2]) was 0, the “Nutsedge plant response rating (0 to 10 scale)” value (purple nutsedge; [3]) was 0 and the “Nutsedge plant response rating” value (purple nutsedge; [8]) was 0. The “Nutsedge plant response rating” value (purple nutsedge; [4]) was 9, the “Nutsedge plant response rating” value (purple nutsedge; [5]) was 0 and the “Plant response rating, Nutsedge” value (purple nutsedge; [6]) was 3. For the same compound, the “Nutsedge plant response rating” value (purple nutsedge; [7]) was 4.
